Values quoted from earlier work, collected in PubChem BioAssay AID1259409 (Chemical Carcinogenesis Research Information System (CCRIS), 2018).

Tested on: rodent chemically induced tumor inhibition, incidence and multiplicity
Assay: CCRIS tumor inhibitor studies
Conditions: Promoter: NONE USED

Structure (SMILES): C[C@]12CC[C@H](O)CC1=CC[C@@H]1[C@@H]2CC[C@]2(C)C(=O)CC[C@@H]12
- tumour outcome (control, treated, inhibition, significance) (Carcinogen: 1,2-DIMETHYLHYDRAZINE, 540-73-8, Dose [Inhibitor]: 0.6% IN DIET BEGINNING 2 WK PRIOR TO 1ST CARCINOGEN DOSE FOR DURATION OF EXPERIMENT (STUDY DURATION: 42 WK), Route [Inhibitor]: ORAL, Species: MOUSE, Strain/Sex: BALB/C/FEMALE, Target Tissue: Type of Lesion: ANUS: SQUAMOUS CELL CARCINOMA, FIBROSARCOMA, Dose [Carcinogen]: 21 MG/KG 1/WK FOR 20 WK): 38%, 50%, -32%, not calculated
- tumour outcome (control, treated, inhibition, significance) (Carcinogen: 1,2-DIMETHYLHYDRAZINE, 540-73-8, Dose [Inhibitor]: 0.6% IN DIET BEGINNING 2 WK PRIOR TO 1ST CARCINOGEN DOSE FOR DURATION OF EXPERIMENT (STUDY DURATION: 42 WK), Route [Inhibitor]: ORAL, Species: MOUSE, Strain/Sex: BALB/FEMALE, Target Tissue: Type of Lesion: ANUS: SQUAMOUS CELL CARCINOMA, FIBROSARCOMA, Dose [Carcinogen]: 21 MG/KG 1/WK FOR 20 WK): 26/151 (17%), 0/141 (0%), 100%, p<0.001
- tumour outcome (control, treated, inhibition, significance) (Carcinogen: 7,12-DIMETHYLBENZ[A]ANTHRACENE, 57-97-6, Dose [Inhibitor]: 0.6% IN DIET BEGINNING 9 D POST CARCINOGEN DOSE (STUDY DURATION: 14 WK AFTER AGENT TREATMENT), Route [Inhibitor]: ORAL, Species: MOUSE, Strain/Sex: STRAIN-A/FEMALE, Target Tissue: Type of Lesion: LUNG: TUMOR, Dose [Carcinogen]: 0.5 MG IN 0.2 ML SESAME OIL ONCE): 28/28 (100%), 20/23 (87%), 13%, not calculated
- tumour outcome (control, treated, inhibition, significance) (Carcinogen: 7,12-DIMETHYLBENZ[A]ANTHRACENE, 57-97-6, Dose [Inhibitor]: 100 UG IN 0.2 ML ACETONE 1 HR PRIOR TO EACH CARCINOGEN DOSE (STUDY DURATION: 290 D), Route [Inhibitor]: DERMAL, Species: MOUSE, Strain/Sex: CD-1/FEMALE, Target Tissue: Type of Lesion: SKIN: CARCINOMA, Dose [Carcinogen]: 200 NMOL AT 6-7 WK OF AGE THEN 100 NMOL 1/WK 2 WK LATER): 14/28 (50%), 5/26 (19%), 62%, p<0.001
- tumour outcome (control, treated, inhibition, significance) (Carcinogen: 7,12-DIMETHYLBENZ[A]ANTHRACENE, 57-97-6, Dose [Inhibitor]: 400 UG IN 0.2 ML ACETONE 1 HR PRIOR TO EACH CARCINOGEN DOSE (STUDY DURATION: 290 D), Route [Inhibitor]: DERMAL, Species: MOUSE, Strain/Sex: CD-1/FEMALE, Target Tissue: Type of Lesion: SKIN: CARCINOMA, Dose [Carcinogen]: 200 NMOL AT 6-7 WK OF AGE THEN 100 NMOL 1/WK 2 WK LATER): 14/28 (50%), 3/27 (11%), 78%, p<0.001
- tumour outcome (control, treated, inhibition, significance) (Carcinogen: AZOXYMETHANE, 25843-45-2, Dose [Inhibitor]: 0, 0.5% DIET BEGINNING 1 DAY AFTER LAST CARCINOGEN DOSE AND CONTINUING FOR DURATION OF STUDY (STUDY DURATION: 18 WK), Route [Inhibitor]: ORAL, Species: RAT, Strain/Sex: F344/MALE, Target Tissue: Type of Lesion: COLON: TUMOR, Dose [Carcinogen]: 10 MG/KG 1/WK FOR 10 WK): 10/15 (67%), 7/15 (47%), 30%, not significant
- tumour outcome (control, treated, inhibition, significance) (Carcinogen: AZOXYMETHANE, 25843-45-2, Dose [Inhibitor]: 0, 0.5% DIET BEGINNING 1 DAY AFTER LAST CARCINOGEN DOSE AND CONTINUING FOR DURATION OF STUDY (STUDY DURATION: 18 WK), Route [Inhibitor]: ORAL, Species: RAT, Strain/Sex: F344/MALE, Target Tissue: Type of Lesion: SMALL INTESTINE: TUMOR, Dose [Carcinogen]: 10 MG/KG 1/WK FOR 10 WK): 10/15 (67%), 8/15 (53%), 21%, not significant
